Measured values reported in patent US5171851A, “Imidazole substituted benzoxazine or benzothiazine derivatives” (Dong-A Pharm. Co., Ltd., priority 1990, dated 1992).
Where “and” joins values, the source holds several entries; their conditions need not be identical. Equal entries are not always repeated. Where two headings read alike, the source gives them in different places.

Legend:
[1] = tested on: anesthetized cats; experiment: cardiotonic effect on anesthetized cats; format: in vivo, cat; conditions: Felis catus; for change in vivo at 0.01 mg/kg: 0.01 mg/Kg iv; for change in vivo at 0.03 mg/kg: 0.03 mg/Kg iv; for change in vivo at 0.1 mg/kg: 0.1 mg/Kg iv; for change in vivo at 0.31 mg/kg: 0.31 mg/Kg iv
Method: Determination of cardiotonic effect on anesthetized cats: Male cats weighing about 3 kg were anesthetized with sodium pentobarbital (30 mg/kg, i.p.). The same anesthetic was infused intravenously at the does of 4 mg/kg/hr in order to maintain the anesthetic state and mechanically ventilated through a cuffed endotracheal tube, chest was opened by a midline incision and a catheter for measuring left ventricular pressure was inserted through apex into left ventricle and the left ventricular pressure was measured. LVdP/dt was determined by use of diffentiator from the left ventricular pressure. Systemic blood pressure was measured by the left femoral artery by a pressure transducer and heart rate was measured by a cardiotachometer triggered by blood pressure pulses. Test compound was injected into the femoral vein by use of cannule. After completion of the surgical procedures, the cats were allowed to recover about 30 minutes before drug administration. These compounds were dissolved in 0.9% physiological saline and diluted with saline. Solvent such as DMSO or DMF was also used, if necessary. Test compound of 0.1 ml/kg was used. Detailed method was reporated in J. Med. Chem. 30. 1279-87(1987).

[2] = tested on: BALB/C mice; experiment: acute toxicity test in BALB/C mice; format: in vivo, mouse; conditions: oral, 200 mg/kg, five mice
Method: Acute toxicity test in mice:
Acute toxicity test of 6-(4-methylimidazol-1-yl)-(4H)-3,1-benzothiazine-2-thione was conducted in BALB/C mice. The test compound was suspended in 5% arabic gum solution and administered orally to five mice at a dose of 200 mg/kg body weight by gastric tubing. […] Accordingly, LD50 of the compound is 200 mg/kg or more.

[3] = tested on: blood perfused papillary muscle preparation; experiment: contractile power on blood perfused papillary muscle preparation; parameters: species or system dog; conditions: for activation at 0.001 mg: dose 1.0 ug
Method: Determination of contractile power on blood perfused papillary muscle preparation:
Dogs of either sex weighing 7-12 kg were anesthetized with sodium pentobarbital (30 mg/kg, i.v.). Heparin of 1000 unit/kg was administered to each animal intravenously. The animals were exsanguinated and heart was removed. The preparation was perfused through the cannulated anterior septal artery (ASA) with arterial blood from a donor dog at constant pressure of about […]. Donor dogs were anesthetized with sodium pentobarbital (30 mg/kg, i.v.). Heparin of 1000 units/kg was administered intravenously. The papillary muscle was stimulated with rectangular pulses of 5- ms duration and about 1.5 times the threshold voltage at a rate of 120 stimuli/min through bipolar electrodes. Resting tension was made to 2 g. The developed tension of papillary muscle was determined by Isometric tresducer. Detailed method was reporated by Matsumoto in Am J. Physiol. 218, 1459-1463 (1970). Test compound at the doses of 10-30 ul was injected in flowing blood in the gum tube connected to catheter. The inotropic effect of the test compounds was shown by change percent of developed tension compared with that prior to the administration of the test compounds.

[4] = tested on: blood-perfused sino-atrial preparation; experiment: sinus rate on blood-perfused sino-atrial preparation; parameters: species or system dog; conditions: for activation at 0.003 mg: dose 3.0 ug
Method: Determination of sinus rate on blood-perfused sino-atrial preparation: Mongrel gods of either sex weighing 7-12 kg were anesthetized with sodium pentoba rbital (30 mg/kg i.v.). Heparin ob 1000 unit/kg was administered to each animal intravenously and the animals were exsanguinated. Heart was removed and put in Krebs-Henseleit solution. Catheter was inserted into blood vessel between right coronary artery and SA nodes. Right atrium and catheter were together removed. Blood supplied from carotid artery of donor dog of either sex weighing 15-25 kg, was supplied to blood vessel cather from right coronary artery and SA node under constant blood pressure of 100 mmHG by use of Peristaltic pump. The resting tension of right atrial muscle was made to 2g. The sinus rate triggered by spontaneous contraction of atrial muscle was determined on Narco physiograph Narcotrace 4). Detailed method was reported by S. Chiba, et al. in Japanese Pharmacology 25, 433-439(1975). Doses of test compounds were injected into flowing blood in gum tube connected to the near part of the catheter inserted into right coronary artery. The effects on sinus rate were shown as percent compared with the sinus ratio prior to the injection of the test compounds.

[5] = target: T1, cyclic AMP phosphodiesterase (Canis lupus familiaris, UniProt A0A8I3NYE0); experiment: effect on cyclic AMP phosphodiesterase isolated from dog's heart; format: biochemical; conditions: substrate 1.0 uM, pH 8.0; read-out: IC 50 (50% inhibition of substrate hydrolysis)
T1 construct: Two to four grams of left ventricular muscle was obtained; from tissue; host or cells: dog left ventricular muscle, detergent-extracted particulate fraction, DEAE-cellulose pool
T1 sequence (A0A8I3NYE0 1-1135): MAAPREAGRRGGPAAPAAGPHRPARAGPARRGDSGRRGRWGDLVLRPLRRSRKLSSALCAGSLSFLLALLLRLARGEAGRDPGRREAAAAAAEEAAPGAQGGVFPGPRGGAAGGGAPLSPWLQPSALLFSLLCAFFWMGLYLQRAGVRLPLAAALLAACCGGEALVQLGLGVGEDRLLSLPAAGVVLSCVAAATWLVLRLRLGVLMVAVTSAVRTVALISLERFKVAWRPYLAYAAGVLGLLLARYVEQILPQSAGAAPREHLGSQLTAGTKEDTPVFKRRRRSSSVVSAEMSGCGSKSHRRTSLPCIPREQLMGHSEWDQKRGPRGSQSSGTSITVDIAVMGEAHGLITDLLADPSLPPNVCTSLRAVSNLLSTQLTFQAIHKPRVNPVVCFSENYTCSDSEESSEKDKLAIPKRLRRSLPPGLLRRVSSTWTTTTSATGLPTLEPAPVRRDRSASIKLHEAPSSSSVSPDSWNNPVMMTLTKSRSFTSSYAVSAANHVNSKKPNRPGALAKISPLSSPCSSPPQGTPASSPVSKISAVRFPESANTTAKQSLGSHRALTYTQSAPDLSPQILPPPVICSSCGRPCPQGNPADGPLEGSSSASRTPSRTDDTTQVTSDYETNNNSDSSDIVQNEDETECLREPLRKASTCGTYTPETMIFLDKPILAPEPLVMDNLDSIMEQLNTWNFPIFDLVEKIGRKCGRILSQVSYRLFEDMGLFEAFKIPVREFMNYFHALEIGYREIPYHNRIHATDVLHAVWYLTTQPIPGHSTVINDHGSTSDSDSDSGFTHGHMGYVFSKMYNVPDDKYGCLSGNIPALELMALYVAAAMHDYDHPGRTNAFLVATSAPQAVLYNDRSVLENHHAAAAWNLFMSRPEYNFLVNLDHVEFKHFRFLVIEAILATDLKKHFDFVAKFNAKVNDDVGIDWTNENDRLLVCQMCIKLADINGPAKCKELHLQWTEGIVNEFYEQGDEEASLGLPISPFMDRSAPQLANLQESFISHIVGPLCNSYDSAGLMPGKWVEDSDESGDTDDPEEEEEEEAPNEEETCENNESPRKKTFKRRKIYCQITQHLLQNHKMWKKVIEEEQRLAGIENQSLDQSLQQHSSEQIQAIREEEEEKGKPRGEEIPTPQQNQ

[6] = tested on: ICR mouse; experiment: acute toxicity test in ICR mouse; format: in vivo; conditions: intravenous, 30 mg/kg, five mice
Method: Acute toxicity test of 6-(4-methylimidazol-1-yl)-(4H)-3,1-benzothiazin-2-one was conducted in ICR mouse. The test compound was dissolved in a mixed solvent of saline and DMF (2:1) and was administered intravenously to five mice at a dose of 30 mg/kg body weight. […] Accordingly, LD50 of the compound is 30 mg/kg or more.

[7] = Canis lupus familiaris, read-out: change of contractivity (%)
[8] = Canis lupus familiaris, read-out: change of sinus rate (%)

Structure (SMILES)	change in vivo at 0.01 mg/kg ([1]; read-out: HR (%))	change in vivo at 0.01 mg/kg ([1]; read-out: LV dp/dt (%))	change in vivo at 0.01 mg/kg ([1]; read-out: LVP (%))	change in vivo at 0.01 mg/kg ([1]; read-out: SBP (%))	change in vivo at 0.01 mg/kg ([1]; read-out: dBP)	change in vivo at 0.01 mg/kg ([1]; read-out: mBP (%))	change in vivo at 0.03 mg/kg ([1]; read-out: HR (%))	change in vivo at 0.03 mg/kg ([1]; read-out: LV dp/dt (%))	change in vivo at 0.03 mg/kg ([1]; read-out: LVP (%))	change in vivo at 0.03 mg/kg ([1]; read-out: SBP (%))	change in vivo at 0.03 mg/kg ([1]; read-out: dBP)	change in vivo at 0.03 mg/kg ([1]; read-out: mBP (%))	change in vivo at 0.1 mg/kg ([1]; read-out: HR (%))	change in vivo at 0.1 mg/kg ([1]; read-out: LV dp/dt (%))	change in vivo at 0.1 mg/kg ([1]; read-out: LVP (%))	change in vivo at 0.1 mg/kg ([1]; read-out: SBP (%))	change in vivo at 0.1 mg/kg ([1]; read-out: dBP)	change in vivo at 0.1 mg/kg ([1]; read-out: mBP (%))	activation at 0.001 mg [3, 7]	activation at 0.003 mg [4, 8]	also measured
Cc1cn(-c2ccc3c(c2)CSC(=S)N3)cn1 [6-(4-methylimidazol-1-yl)-(4H)-3,1-benzothiazine-2-thione]	0%	3.7%	0%	4%	4%	4%	2.1%	18.5%	0%	0%	-4%	-3%	3.6%	40.7%	1.2%	-4.7%	-14%	-10%			dead animals [2]: no dead animal was found
Cc1cn(-c2cc(C)c3c(c2)COC(=O)N3)cn1 [8-methyl-6-(4-methylimidazol-1-yl)-(4H)-3,1-benzoxazin-2-one]	2%	20%	0.1%	-1.7%	-8.5%	-5.5%							7.5%	50%	4.4%	-6.6%	-20%	-13.9%	23.9%	5.8%	change in vivo at 0.31 mg/kg ([1]; read-out: HR (%)): 4.4%; change in vivo at 0.31 mg/kg ([1]; read-out: LV dp/dt (%)): 40%; change in vivo at 0.31 mg/kg ([1]; read-out: LVP (%)): 1.2%; change in vivo at 0.31 mg/kg ([1]; read-out: SBP (%)): -3.4%; change in vivo at 0.31 mg/kg ([1]; read-out: dBP): -14.3%; change in vivo at 0.31 mg/kg ([1]; read-out: mBP (%)): -9.3%; activation at 0.0001 mg ([3]; Canis lupus familiaris, dose 0.1 ug, read-out: change of contractivity (%)): 4.3%; activation at 0.0003 mg ([3]; Canis lupus familiaris, dose 0.3 ug, read-out: change of contractivity (%)): 8.7%; activation at 0.003 mg ([3]; Canis lupus familiaris, dose 3.0 ug, read-out: change of contractivity (%)): 79.2%; ED 30 (developed tension of papillary muscle) ([3]; least-square method): 1.2 µg; activation at 0.0001 mg ([4]; Canis lupus familiaris, dose 0.1 ug, read-out: change of sinus rate (%)): 0.8%; activation at 0.0003 mg ([4]; Canis lupus familiaris, dose 0.3 ug, read-out: change of sinus rate (%)): 1.7%; activation at 0.001 mg ([4]; Canis lupus familiaris, dose 1.0 ug, read-out: change of sinus rate (%)): 6.6%; change of sinus rate (%) ([4]; at the ED 30 dose): +5.0%; IC50 [5]: 2.4 µM and 4.3 µM and 4.05 µM
Cc1cn(-c2ccc3c(c2)CSC(=O)N3)cn1 [6-(4-methylimidazol-1-yl)-(4H)-3,1-benzothiazin-2-one]	0%	14.8%	0%	-4%	-8.5%	-9.1%	0.6%	33.3%	0%	-10%	-14.3%	-12.5%	4.5%	40.7%	8.2%	-14%	-20%	-17.5%	0%	2.3%	dead animals [6]: no dead animal was found; activation at 0.01 mg ([3]; Canis lupus familiaris, dose 10.0 ug, read-out: change of contractivity (%)): 20.5%; activation at 0.03 mg ([3]; Canis lupus familiaris, dose 30.0 ug, read-out: change of contractivity (%)): 30.7%; activation at 0.03 mg ([4]; Canis lupus familiaris, dose 30.0 ug, read-out: change of sinus rate (%)): 5.6%
